Measurements published in publication PMC10046377, “Inhibitors of the Oncogenic PA2G4-MYCN Protein-Protein Interface” (Cancers, 2023).

Assays:
[1] = system: SK-N-BE(2)-C cells; test: Label-free quantitative LC/MS proteomics of treated SK-N-BE(2)-C cells; assay type: cell-based, human; details: 72 h, versus DMSO, LFQ LC/MS
Description: SK-N-BE(2)-C cells were incubated with #5333 or #5338 at IC50 concentration of the compound for 72 h. Cells were harvested and the pellets were lysed with RIPA buffer containing protease inhibitors (Sigma-Aldrich, St. Louis, MO, USA). Cell lysates were sent for LFQ/LC/MS analysis at the Bioanalytical Mass Spectrometry Facility, UNSW Sydney. […] Differential protein expression analysis was performed using the DEP (v1.14.0) package in R(v4.1.1). Variance stabilising transformation (vsn) method was used to normalise the protein expression data. Threshold of p-value < 0.05 and log2 fold-change value > |0.6| was used as a cut off to identify differentially expressed proteins. Functional enrichment analysis was performed using DAVID (v 6.8).
To further understand the mechanism of action and off target effects of the WS6 analogues, we used label-free quantitative mass spectrometry of differential proteome expression in response to drug treatment. […] A total of 4255 unique proteins were captured across the three proteomes, of which 258 proteins were differentially expressed after treatment with #5333, and 1371 proteins treated with #5338, when compared to DMSO-treated cells (Figure 4A,B and Supplementary Figure S4A).

[2] = target: T1, PA2G4 protein (Homo sapiens, UniProt Q9UQ80); test: Differential scanning fluorimetry of PA2G4; assay type: binding; parameters: made in house; host or cells: BL21 (DE3) E. coli; details: relative to DMSO control
T1 sequence (Q9UQ80 1-394): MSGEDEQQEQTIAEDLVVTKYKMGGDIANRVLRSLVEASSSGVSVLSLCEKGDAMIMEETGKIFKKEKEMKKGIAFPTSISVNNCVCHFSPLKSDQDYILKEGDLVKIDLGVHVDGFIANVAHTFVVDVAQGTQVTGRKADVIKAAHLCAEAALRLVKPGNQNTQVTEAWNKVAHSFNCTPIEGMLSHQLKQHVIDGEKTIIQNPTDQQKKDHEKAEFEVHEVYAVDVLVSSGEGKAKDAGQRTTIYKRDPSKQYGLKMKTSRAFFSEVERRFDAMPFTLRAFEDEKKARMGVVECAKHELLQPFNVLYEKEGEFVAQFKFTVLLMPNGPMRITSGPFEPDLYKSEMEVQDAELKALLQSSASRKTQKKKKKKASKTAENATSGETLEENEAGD
Text: Seeking a further reduction of toxicity and improvements in physicochemical properties, we conducted a second in silico analogue screen using the structure of #3567. A further 33 compounds were purchased and assayed (Supplementary Figure S1C).

[3] = target: T1, PA2G4 protein; test: Surface plasmon resonance binding to recombinant PA2G4; parameters: PA2G4 protein construct was ordered from GenScript (Piscataway, NJ, USA) and cloned into a pET22b vector; host or cells: BL21 (DE3) E. coli; details: SPR
Description: PA2G4 protein construct was ordered from GenScript (Piscataway, NJ, USA) and cloned into a pET22b vector. The construct was expressed in BL21 (DE3) E. coli, which was transformed by adding 2 μL of DNA, as per the Addgene Bacterial Transformation Protocol (Addgene, Cambridge, MA, USA). A total of 250 μL of transformed cells were grown in Luria-Bertani (LB) agar, containing 100 μg/mL of ampicillin, overnight at 37 °C. Starting cultures were created by inoculating 100 mL of LB with several bacterial culture colonies, followed by an overnight shaking incubation at 125 rpm and 37 °C. The overnight culture was added (10 mL/L) to 2 L flasks of LB and incubated at 125 rpm and 37 °C until log phase growth was reached (OD600 = 0.6). Following incubation, the cell line was centrifuged at 4200 rpm for 30 min in 1 L bottles. The cell pellet was then resuspended in 25 mL of phosphate-buffered saline (PBS) and centrifuged again at 4200 rpm for 30 min.
Cell pellets were resuspended in 25 mL of Ni-IMAC buffer A (100 mM Tris (pH 8.0), 0.5 M NaCl, 1 mM TCEP), filtered through 22–25 μm Miracloth, and placed on ice. Filtered cells were lysed using the EmulsiFlex-C5 High-Pressure homogenizer (Avestin, Ottawa, ON, Canada), followed by high-speed centrifugation at 18,000 rpm for 20 min. The supernatant, containing the soluble cell lysate, was loaded onto a 5 mL His-Trap column (GE Healthcare Life Sciences, Buckinghamshire, UK) equilibrated in Ni-IMAC buffer A. An incremental gradient of Ni-IMAC buffer B (100 mM Tris pH 8.0, 0.5 M NaCl, 1 mM TCEP, and 1 M imidazole) was introduced. Eluted fractions were analysed by SDS-PAGE and pooled accordingly. Each protein sample was then loaded onto a HiPrep 26/10 Desalting column (GE Healthcare Life Sciences, Buckinghamshire, UK) and equilibrated into anion exchange buffer A (100 mM Tris pH 8.0, 50 mM NaCl, 1 mM TCEP). Samples were loaded onto the column and eluted fractions were analysed by SDS-PAGE and pooled accordingly.
Protein was loaded onto a 5 mL HiTrap Q (Sephrose-Q) anion exchange column (GE Healthcare Life Sciences, Buckinghamshire, UK) and equilibrated in anion exchange buffer A. Samples were loaded, eluted in the flow-through, and analysed using SDS-PAGE. Samples were pooled and concentrated using 10 kDa MWCO Ultra-4 centrifugal filters (Merck, Macquarie Park, NSW, Australia) and intermittent centrifugation at 4000 rpm. Protein samples were then purified using Size Exclusion Chromatography (SEC). Each sample was concentrated to […] using MWCO Ultra-4 centrifugal filters, then loaded onto a Superdex 75 16/60 SEC column (GE Healthcare Life Sciences, Buckinghamshire, UK) and equilibrated in SEC buffer (25 mM Hepes pH 7.7, 100 mM NaCl, 1 mM TCEP). Samples were eluted, analysed by SDS-PAGE, and concentrated to 10 mg/mL using 10 kDa MWCO Ultra-4 centrifugal filters, with intermitted centrifugation at 4000 rpm.
Recombinant PA2G4 was buffer exchanged into PBS buffer using an overnight dialysis at 4 °C. Protein was concentrated to 0.5 mg/mL and incubated for 3 h on ice with a 20:1 molar excess of EZ-Link Sulfo-NHS-LC-Biotin (Thermo Scientific, Melbourne, VIC, Australia). Biotinylated protein samples were isolated from excess biotin using a Superdex 200 10/300 SEC column (GE Healthcare Life Sciences, Buckinghamshire, UK). All SPR experiments were performed on a Biacore T200 instrument (GE Healthcare Life Sciences, Uppsala, Sweden), at 25 °C, in the presence of HEPES Buffered Saline (HBS) (20 mM […] (pH 7.5) 137 mM NaCl, 2.7 mM KCl, and 0.05% Tween 20). Streptavidin was coupled to a CM5 chip (GE Healthcare Life Sciences, Buckinghamshire, UK) using amine coupling. Biotinylated protein samples were then capture-coupled to the streptavidin, with flow cell 1 blocked as a reference.
Compounds were dissolved in 100% DMSO and diluted to 10 mM. […]

[4] = Biacore T200, 25 °C, biotinylated PA2G4

| SMILES | GATA2 protein fold change [1] | melting temperature of PA2G4 (DSF) [2] | Kd [3, 4] | Kd ([3]; recombinant PA2G4) |
| --- | --- | --- | --- | --- |
| Cc1cccc(Oc2cc(N3CCC(C(=O)N[C@@H](C)CCc4ccccc4)CC3)ncn2)c1C [#5338] | −5.5 | increased the melting temperature | 13.5 µM | 13.5 µM |
| Cc1cccc(Oc2cc(N3CCC(C(=O)NCc4cccc(C(F)(F)F)c4)CC3)ncn2)c1C [#3567] | – | – | 14.9 µM | 14.9 µM |
| Cc1cccc(Oc2cc(N3CCC(C(=O)NCc4cccc(Br)c4)CC3)ncn2)c1C [#5333] | −4.2 | increased the melting temperature | 10.8 µM | 10.8 µM |
